Results from ChEMBL document CHEMBL3988442, “University of Dundee, Small-Polar-MMV Screening Library” (2021).
Several values for one entry are separate records, joined by “and”; a condition that tells them apart may be missing. Equal values may be shown once.

Columns and labels:
Wolbachia pipientis = test: Anti-Wolbachia Cell-Based Screen; assay type: functional; conditions: for IC50: Wolbachia pipientis
Lysine--tRNA ligase = Lysine--tRNA ligase (Plasmodium falciparum (isolate 3D7), UniProt Q8IDJ8); test: Pf-KRS-1 (Lysyl-RNA Synthetase-1, KRS-1, cytosolic KRS) from Plasmodium falciparum. Inhibitor assay, 384 well plate, luminescence read.; assay type: functional
Lysine--tRNA ligase, sequence (Q8IDJ8 whole entry): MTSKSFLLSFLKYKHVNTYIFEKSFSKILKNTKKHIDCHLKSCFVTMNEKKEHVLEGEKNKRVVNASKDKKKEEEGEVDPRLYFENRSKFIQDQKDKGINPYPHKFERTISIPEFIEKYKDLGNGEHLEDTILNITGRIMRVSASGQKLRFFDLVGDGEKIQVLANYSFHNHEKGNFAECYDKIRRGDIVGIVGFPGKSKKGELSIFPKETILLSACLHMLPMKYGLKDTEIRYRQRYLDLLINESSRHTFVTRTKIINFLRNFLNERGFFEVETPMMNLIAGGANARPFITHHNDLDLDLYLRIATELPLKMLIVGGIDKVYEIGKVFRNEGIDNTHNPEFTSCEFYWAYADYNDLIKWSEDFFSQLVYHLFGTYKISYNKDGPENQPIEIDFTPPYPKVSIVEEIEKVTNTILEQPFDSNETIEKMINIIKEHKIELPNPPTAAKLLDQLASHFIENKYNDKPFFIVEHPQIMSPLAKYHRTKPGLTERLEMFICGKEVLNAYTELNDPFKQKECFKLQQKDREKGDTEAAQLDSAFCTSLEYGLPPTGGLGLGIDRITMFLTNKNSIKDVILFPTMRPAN

[1] = target: Polyketide synthase Pks13 (Mycobacterium tuberculosis (strain ATCC 25618 / H37Rv), UniProt I6X8D2); test: Mycobacterium tuberculosis Polyketide synthase 13 Thioesterase (PKS13); assay type: functional
Polyketide synthase Pks13, sequence (I6X8D2 whole entry): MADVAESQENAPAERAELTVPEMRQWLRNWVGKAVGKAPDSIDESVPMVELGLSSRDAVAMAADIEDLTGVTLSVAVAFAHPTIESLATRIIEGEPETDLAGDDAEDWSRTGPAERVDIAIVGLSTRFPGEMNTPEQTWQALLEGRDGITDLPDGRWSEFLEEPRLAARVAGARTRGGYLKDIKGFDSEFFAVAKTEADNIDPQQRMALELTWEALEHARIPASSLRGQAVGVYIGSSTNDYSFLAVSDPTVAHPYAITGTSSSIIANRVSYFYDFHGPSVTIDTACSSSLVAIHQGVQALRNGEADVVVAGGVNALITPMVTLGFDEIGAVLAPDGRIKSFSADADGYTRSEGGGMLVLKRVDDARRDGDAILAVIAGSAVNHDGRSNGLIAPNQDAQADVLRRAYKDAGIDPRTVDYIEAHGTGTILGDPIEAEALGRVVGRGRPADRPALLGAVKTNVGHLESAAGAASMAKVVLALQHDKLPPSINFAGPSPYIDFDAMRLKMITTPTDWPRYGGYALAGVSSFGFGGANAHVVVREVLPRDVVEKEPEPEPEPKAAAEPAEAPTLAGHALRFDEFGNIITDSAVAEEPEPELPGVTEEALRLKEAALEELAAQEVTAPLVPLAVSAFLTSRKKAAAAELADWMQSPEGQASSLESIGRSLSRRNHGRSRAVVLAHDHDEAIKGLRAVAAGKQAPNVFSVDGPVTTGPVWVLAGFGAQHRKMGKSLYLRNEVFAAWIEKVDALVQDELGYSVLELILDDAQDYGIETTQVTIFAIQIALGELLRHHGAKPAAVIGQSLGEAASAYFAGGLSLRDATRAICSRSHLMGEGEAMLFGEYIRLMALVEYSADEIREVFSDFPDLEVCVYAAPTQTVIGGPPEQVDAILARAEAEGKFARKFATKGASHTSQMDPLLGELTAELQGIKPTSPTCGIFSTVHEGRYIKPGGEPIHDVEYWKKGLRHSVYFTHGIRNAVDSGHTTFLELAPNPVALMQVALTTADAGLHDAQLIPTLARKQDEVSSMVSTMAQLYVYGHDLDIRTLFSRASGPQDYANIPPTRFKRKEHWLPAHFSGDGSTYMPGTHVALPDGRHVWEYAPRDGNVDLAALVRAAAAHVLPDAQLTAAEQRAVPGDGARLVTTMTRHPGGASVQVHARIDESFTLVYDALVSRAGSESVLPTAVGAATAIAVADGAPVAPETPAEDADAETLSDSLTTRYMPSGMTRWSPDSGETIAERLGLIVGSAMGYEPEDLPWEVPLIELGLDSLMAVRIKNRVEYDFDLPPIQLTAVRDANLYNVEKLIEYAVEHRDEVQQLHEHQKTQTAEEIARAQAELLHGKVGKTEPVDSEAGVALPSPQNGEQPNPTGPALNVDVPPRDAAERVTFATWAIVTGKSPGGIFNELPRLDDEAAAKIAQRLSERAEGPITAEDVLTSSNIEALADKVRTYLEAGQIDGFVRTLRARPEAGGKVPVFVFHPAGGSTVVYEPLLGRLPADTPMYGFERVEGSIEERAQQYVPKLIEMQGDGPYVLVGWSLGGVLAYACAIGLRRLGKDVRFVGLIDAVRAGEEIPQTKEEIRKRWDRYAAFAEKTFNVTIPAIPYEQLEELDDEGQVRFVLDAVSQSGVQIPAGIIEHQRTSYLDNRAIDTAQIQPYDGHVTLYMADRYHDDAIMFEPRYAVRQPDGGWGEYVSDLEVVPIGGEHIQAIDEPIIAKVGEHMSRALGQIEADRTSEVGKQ

ClpP1P2 = ClpP1P2 (Mycobacterium tuberculosis (strain ATCC 25618 / H37Rv), UniProt P9WPC3+P9WPC5); test: in vitro assay to detect presence of AMC directly proportional to the activity of ClpP1P2. GHDDI collaboration.; assay type: functional
ClpP1P2, sequence (P9WPC5 whole entry): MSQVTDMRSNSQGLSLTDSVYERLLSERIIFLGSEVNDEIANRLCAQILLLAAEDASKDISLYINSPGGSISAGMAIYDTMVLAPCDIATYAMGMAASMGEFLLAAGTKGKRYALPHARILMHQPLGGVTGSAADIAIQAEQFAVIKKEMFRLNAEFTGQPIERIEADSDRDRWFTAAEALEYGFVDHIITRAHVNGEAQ
ClpP1P2, sequence (P9WPC3 whole entry): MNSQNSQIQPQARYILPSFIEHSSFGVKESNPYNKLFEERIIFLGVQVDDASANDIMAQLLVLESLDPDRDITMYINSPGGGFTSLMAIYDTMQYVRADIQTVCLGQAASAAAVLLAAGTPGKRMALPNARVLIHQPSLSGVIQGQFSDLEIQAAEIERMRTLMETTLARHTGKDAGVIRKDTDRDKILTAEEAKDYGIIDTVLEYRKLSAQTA

[2] = target: T1, Coenzyme A biosynthesis bifunctional protein CoaBC (Mycobacterium tuberculosis (strain ATCC 25618 / H37Rv), UniProt P9WNZ1); test: Biomol Green assay for MtCoaBC inhibitor, OD650 read; assay type: functional
T1 sequence (P9WNZ1 whole entry): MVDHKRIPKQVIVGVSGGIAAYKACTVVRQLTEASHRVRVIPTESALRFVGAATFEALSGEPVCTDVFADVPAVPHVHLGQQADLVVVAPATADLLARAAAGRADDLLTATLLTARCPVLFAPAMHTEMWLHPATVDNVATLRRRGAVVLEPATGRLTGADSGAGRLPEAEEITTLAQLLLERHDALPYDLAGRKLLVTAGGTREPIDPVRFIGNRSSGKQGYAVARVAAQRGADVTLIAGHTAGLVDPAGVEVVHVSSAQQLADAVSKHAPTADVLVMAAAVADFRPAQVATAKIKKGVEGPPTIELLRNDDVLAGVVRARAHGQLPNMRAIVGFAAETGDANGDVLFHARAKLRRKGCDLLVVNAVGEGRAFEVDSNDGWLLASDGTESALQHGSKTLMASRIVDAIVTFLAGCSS

Histidine--tRNA ligase = target: T2, Histidine--tRNA ligase (Leishmania infantum, UniProt A4I591); test: Leishmania infantum Histidine tRNA synthetase (LdHisRS); assay type: functional
T2 sequence (A4I591 whole entry): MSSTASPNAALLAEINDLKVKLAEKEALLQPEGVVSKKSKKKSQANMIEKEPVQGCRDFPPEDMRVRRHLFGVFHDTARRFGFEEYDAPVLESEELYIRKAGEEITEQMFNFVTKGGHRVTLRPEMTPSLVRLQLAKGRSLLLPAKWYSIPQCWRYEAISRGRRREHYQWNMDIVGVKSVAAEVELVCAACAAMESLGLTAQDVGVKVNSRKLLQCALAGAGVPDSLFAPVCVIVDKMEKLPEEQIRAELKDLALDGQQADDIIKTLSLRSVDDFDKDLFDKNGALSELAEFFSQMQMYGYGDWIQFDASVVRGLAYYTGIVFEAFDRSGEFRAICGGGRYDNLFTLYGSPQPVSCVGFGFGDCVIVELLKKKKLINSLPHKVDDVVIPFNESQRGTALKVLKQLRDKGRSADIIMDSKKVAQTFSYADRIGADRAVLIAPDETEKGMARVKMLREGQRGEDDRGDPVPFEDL

Tryptophan--tRNA ligase = Tryptophan--tRNA ligase (Mycobacterium tuberculosis (strain ATCC 25618 / H37Rv), UniProt P9WFT3); test: Biochemical assay for Mt-TrpRS; assay type: functional
Tryptophan--tRNA ligase, sequence (P9WFT3 whole entry): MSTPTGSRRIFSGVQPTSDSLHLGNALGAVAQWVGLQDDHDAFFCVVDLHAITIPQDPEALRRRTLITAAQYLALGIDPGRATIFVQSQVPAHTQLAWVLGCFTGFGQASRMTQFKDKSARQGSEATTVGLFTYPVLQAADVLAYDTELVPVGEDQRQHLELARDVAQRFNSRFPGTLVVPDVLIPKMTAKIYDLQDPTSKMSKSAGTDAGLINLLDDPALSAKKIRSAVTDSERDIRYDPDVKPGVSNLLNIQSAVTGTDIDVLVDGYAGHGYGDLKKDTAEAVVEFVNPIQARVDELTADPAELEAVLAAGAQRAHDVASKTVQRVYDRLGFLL

[3] = microbe, parasite or virus in culture; conditions: Mycobacterium tuberculosis, 72 h, read-out: pIC50 (converted)
[4] = microbe, parasite or virus in culture; conditions: Mycobacterium tuberculosis, 96 h, read-out: pIC50 (converted)
[5] = In vitro enzyme assay to detect hydrolysis of chlorophenol red-beta-D-[…] directly proportional to the number of Toxoplasma stably expressing beta-galactosidase; assay type: functional, organism-based, Toxoplasma gondii; conditions: for IC50: Toxoplasma gondii
Leishmania donovani = test: Leishmania intramacrophage assay; assay type: functional, organism-based; conditions: Leishmania donovani

SMILES	IC50 (Wolbachia pipientis) [µM]	IC50 [1]	other results
Cn1ccnc(Nc2ccc3c(c2)CCN3C(=O)c2ccoc2)c1=O	–	–	pIC50 (Wolbachia pipientis): 5.166 and 5.523
c1cc(CN2CCc3cncnc3C2)c2c(c1)OCCO2	> 10	–	pIC50 (Wolbachia pipientis): 5.26
CCCOC(C)Cn1ccc2[nH]c(=O)c(C#N)cc2c1=O (stereo not drawn)	–	28.5 µM and 11.6 µM	IC50 (Lysine--tRNA ligase): > 50.1 µM; IC50 (ClpP1P2): > 100 µM
COc1ccccc1OCCN(C)c1cc(C)nc(N)n1	> 10	–	–
CCC(Nc1nc(C)nc2onc(C)c12)c1nc(C)c(C)s1 (stereo not drawn)	2.54	–	pIC50 (Wolbachia pipientis): 5.592
Cc1cnn(CC2CCCCN2C(=O)c2ccc(CN(C)C)cc2)c1 (stereo not drawn)	> 10	–	–
CC(C)Cn1ncc2cc(C(=O)N(C)Cc3cccc(O)c3)cnc21	> 10	–	–
CCOc1ncccc1C(=O)N1CCCC1c1c(C)nn(C)c1OC (stereo not drawn)	> 10	–	–
CCC(C)n1cnc(S(=O)(=O)N(Cc2cccnc2)C(C)C)c1 (stereo not drawn)	> 10	–	–
CC(C)N(C(=O)c1csc(-c2ccoc2)n1)C1CCOCC1	> 10	–	–
CCc1cc(C(=O)N2CCC3(CCCN(CC4CC4)C3=O)C2)cs1 (stereo not drawn)	> 10	–	–
Cc1ccc(C(=O)N2CCC3(CC2)CN(CCN(C)C)C(=O)O3)c(F)c1	> 10	–	pIC50 (Wolbachia pipientis): 5.079
CC(C)[C@@H]1CN(C2CCN(Cc3ccccc3)CC2)C[C@H]1NS(C)(=O)=O	3.75	–	pIC50 (Wolbachia pipientis): 5.381
COc1ccccc1N1CCC(CNS(=O)(=O)c2cccc(C#N)c2)C1 (stereo not drawn)	–	49.7 µM and > 100 µM	IC50 [2]: > 30.2 µM
O=C1CC(c2ccc3ccccc3n2)c2c(n[nH]c2C2CCC2)N1 (stereo not drawn)	> 10	–	–
Cc1ccccc1C1CN(c2cnn(C)c(=O)c2Cl)CCO1 (stereo not drawn)	7.69	–	pIC50 (Wolbachia pipientis): 5.107
Cc1nn(C)c2nc(N3CCCCC3c3nccs3)sc12 (stereo not drawn)	0.156	–	pIC50 (Wolbachia pipientis): 7.075
Cc1cc(N(Cc2cccs2)C2CC2)n2nc(C(F)(F)F)nc2n1	–	–	pIC50 (Wolbachia pipientis): 6.155 and 6.458
c1cnnc(N2CCCC2CNCc2csc(-c3ccco3)n2)c1 (stereo not drawn)	> 10	–	–

SMILES	IC50 (Wolbachia pipientis) [µM]	IC50 [1]	other results
Cc1cc(NC(=O)CN2CCn3c(nnc3C3CC3)C2)on1	> 10	–	–
COc1cnc(N2CC(N3CCOCC3)C2)nc1-c1ccnn1C	–	52.6 µM and 31.8 µM	IC50 [2]: > 50.1 µM; IC50 (ClpP1P2): > 100 µM; IC50 (Histidine--tRNA ligase): 5.05 µM and 10.5 µM
CC(C)Cn1ncc2cc(C(=O)N(C)CCc3ccccc3)cnc21	> 10	–	–
Cc1cc(NC(=O)c2ccccc2Br)n(C)n1	> 10	–	–
Cc1n[nH]c(C)c1CCC(=O)N(C)Cc1cn[nH]c1-c1ccc(F)cc1	5.81	–	pIC50 (Wolbachia pipientis): 5.21
Cc1c[nH]c(CN2CCOC(c3ccc(Cl)c(Cl)c3)C2)c(C)c1=O (stereo not drawn)	3.83	–	pIC50 (Wolbachia pipientis): 5.368
Cc1nn(C)c(C)c1CN(C)c1nc(C2CC2)nc2c(C)nn(C)c12	2.65	–	pIC50 (Wolbachia pipientis): 5.529
CC(C)c1cc(CSCCC(=O)O)no1	3.09	–	pIC50 (Wolbachia pipientis): 5.282
CNC(=O)c1cn[nH]c1C1(C)CCCN(Cc2nccn2C(C)C)C1 (stereo not drawn)	> 10	–	–
CNS(=O)(=O)c1csc(C(=O)N(C)Cc2ccccc2C)c1	–	> 100 µM	IC50 (Tryptophan--tRNA ligase): > 195 µM
Cn1cc(NC(=O)c2cc[nH]n2)cc(Cl)c1=O	–	> 100 µM	IC50 (Lysine--tRNA ligase): > 50.1 µM; IC50 [3]: > 50.1 µM; IC50 [4]: > 50.1 µM
CCCOc1ccc(Cl)cc1CNc1ncnc2oc(C)nc12	–	12.3 µM and 19.8 µM	IC50 [3]: > 50.1 µM; IC50 [4]: > 50.1 µM; IC50 [5]: 12.6 µM
COCCNc1nc2c(c(NCC3CCOC3)n1)CCNCC2 (stereo not drawn)	–	> 100 µM	IC50 (Leishmania donovani): > 50.1 µM
CCc1ncc2c(n1)CN(CC1CCCCO1)CC2 (stereo not drawn)	–	> 100 µM	IC50 (Lysine--tRNA ligase): > 50.1 µM
CC(C)c1cc(N2CCC(N)CC2)n2nccc2n1	–	> 100 µM	IC50 (Leishmania donovani): > 50.1 µM
CC(C)c1cc(CN2CCC(CC(=O)O)CC2)no1	–	12.3 µM and 7.76 µM	IC50 (Tryptophan--tRNA ligase): > 195 µM
Cc1ncc2c(n1)CN(CCCc1nc3ccccc3o1)CC2	–	> 100 µM	IC50 (Lysine--tRNA ligase): > 50.1 µM
Cc1cnc2c(C(=O)N3CCCC(OCc4ccccn4)C3)cnn2c1 (stereo not drawn)	–	> 100 µM	IC50 [2]: > 30.2 µM
CCCn1c(N2CCCC2)nc2c(C)nn(C)c2c1=O	–	> 100 µM	IC50 [5]: > 50.1 µM

SMILES	IC50 (Wolbachia pipientis) [µM]	IC50 [1]	other results
Cn1nccc1CCC(=O)N1CCCC(c2cnccn2)C1 (stereo not drawn)	–	> 100 µM	IC50 (Tryptophan--tRNA ligase): > 195 µM
O=C(c1ccc(COc2ccc(Cl)cc2)o1)N1N=CCC1(O)C(F)(F)F (stereo not drawn)	–	17.3 µM and 24.2 µM	pIC50 [5]: 5.524; IC50 [5]: 3.1 µM
CCOc1cc(/C=C/c2ncc(C(=O)O)s2)cc(Br)c1O	–	> 100 µM and 24.3 µM	IC50 [2]: > 30.2 µM
NC(=O)c1ccccc1-n1cc(-c2cccc(C(=O)O)c2)cn1	–	> 100 µM	IC50 (Histidine--tRNA ligase): 88.1 µM and > 100 µM
Cn1cnc(-c2nc(C(=O)NC3CC3)c3ccccn23)c1	–	73.2 µM and 16.1 µM	IC50 (ClpP1P2): > 100 µM
CC(C)Nc1nc2c(cc1C(=O)NCC1CC1)CCN(C)CC2	–	30.6 µM and 15.6 µM	IC50 (ClpP1P2): > 100 µM
CC(C)Nc1nc2c(cc1C(=O)NCC1CC1)CCN(CC1CC1)CC2	–	14.7 µM and 35.6 µM	IC50 (ClpP1P2): > 100 µM
O=c1[nH]c(NC2CCCC2)nc2nccc(-c3ccco3)c12	–	> 100 µM	IC50 (ClpP1P2): > 100 µM
CC(C)(C)Nc1nc(-c2cccnc2)c(-c2ccnc(NCCO)n2)s1	–	> 100 µM	IC50 [5]: 5.53 µM
Cc1ccc2[nH]c(CO[C@H]3CN(c4ccc(C#N)cn4)C[C@H]3F)nc2c1	–	26.6 µM	IC50 (Lysine--tRNA ligase): > 50.1 µM; IC50 [2]: > 50.1 µM; IC50 (ClpP1P2): 7.25 µM; IC50 (Histidine--tRNA ligase): 27.1 µM and 37.7 µM
O=C(c1ccccc1)C1CCN(c2cncc(-n3cccn3)n2)CC1	–	29 µM and 33.8 µM	IC50 (Leishmania donovani): > 50.1 µM
O=c1ccc2c(n1CC1CCOCC1)CCN(Cc1ccoc1)CC2	–	> 100 µM	IC50 (ClpP1P2): > 100 µM
COCC(=O)N1CCC(c2cc(C(F)(F)F)n3ccnc3n2)CC1	–	28.4 µM and 36.3 µM	IC50 (ClpP1P2): > 100 µM
Cc1nc(C(=O)N(C)CC(F)(F)C(F)(F)F)c2ccccn12	–	> 57.5 µM and 27.2 µM	IC50 (ClpP1P2): > 100 µM
CN1CCC(NC(=O)c2cc(F)cc(Cl)c2O)C1=O (stereo not drawn)	–	40.1 µM and 21.4 µM	IC50 (ClpP1P2): > 100 µM
CC(CN1CCCC1=O)NC(=O)c1ccc(-c2ccco2)[nH]c1=O (stereo not drawn)	–	7.52 µM and 13.7 µM	IC50 (ClpP1P2): > 100 µM
CN(C)C(=O)c1cnc(-c2ccc3c(c2)OCO3)s1	–	11.1 µM and 8.56 µM	IC50 (ClpP1P2): > 100 µM
Cc1csc(CNc2cnc3c(c2)c(C)nn3C)n1	–	7.6 µM and 15.2 µM	IC50 (ClpP1P2): > 100 µM
